Experimental data from ChEMBL document CHEMBL3046513, “Synthesis, characterization, and biological evaluation of some N-aryl hydrazones and their 2,3-disubstituted-4-thiazolidinone derivatives” (Med Chem Res, 2013).
In brackets after ≈: the same amount, converted by molar mass.

Each compound was assayed on Candida albicans (assay: Antifungal activity against Candida albicans assessed as growth inhibition by serial plate dilution method).
Format: functional

First: COc1ccc(Br)c(C(=O)N/N=C\c2ccc(O)cc2)c1
Second: COc1ccc(/C=N\NC(=O)c2cc(OC)ccc2Br)cc1
The MIC of the first is 2-fold lower: 3.12 µg/mL (≈ 8.95 µM) for the first, 6.25 µg/mL (≈ 17.2 µM) for the second.

`COc1ccc(Br)c(C(=O)NN2C(=O)CSC2C2=C(Cl)c3ccccc3C(c3ccc(Cl)c(Cl)c3)C2)c1` (centres undefined) and `COc1ccc(Br)c(C(=O)N/N=C/C2=C(Cl)c3ccccc3C(c3ccc(Cl)c(Cl)c3)C2)c1` (centres undefined) are the same in MIC: 6.25 µg/mL (≈ 9.78 µM) for the first, 6.25 µg/mL (≈ 11.1 µM) for the second.

`COc1ccc(/C=N\NC(=O)c2cc(OC)ccc2Br)c(OC)c1` and `COc1ccc(Br)c(C(=O)N/N=C\c2cccc(Cl)c2)c1` are the same in MIC: 6.25 µg/mL (≈ 15.9 µM) for the first, 6.25 µg/mL (≈ 17 µM) for the second.

`COc1ccc(Br)c(C(=O)NN2C(=O)CSC2c2ccccc2Cl)c1` (centres undefined) and `COc1ccc(Br)c(C(=O)NN2C(=O)CSC2c2ccc(O)cc2)c1` (centres undefined) are the same in MIC: 6.25 µg/mL (≈ 14.1 µM) for the first, 6.25 µg/mL (≈ 14.8 µM) for the second.

Each compound was assayed on Bacillus cereus (assay: Antibacterial activity against Bacillus cereus assessed as growth inhibition by serial plate dilution method).
Format: functional

Going from `COc1ccc(Br)c(C(=O)N/N=C\c2ccc(O)cc2)c1` to `COc1ccc(/C=N\NC(=O)c2cc(OC)ccc2Br)cc1`, the MIC rises from 6.25 µg/mL (≈ 17.9 µM) to 12.5 µg/mL (≈ 34.4 µM) (2-fold).

`COc1ccc(Br)c(C(=O)NN2C(=O)CSC2C2=C(Cl)c3ccccc3C(c3ccc(Cl)c(Cl)c3)C2)c1` (centres undefined) and `COc1ccc(Br)c(C(=O)N/N=C/C2=C(Cl)c3ccccc3C(c3ccc(Cl)c(Cl)c3)C2)c1` (centres undefined) are the same in MIC: 12.5 µg/mL (≈ 19.6 µM) for the first, 12.5 µg/mL (≈ 22.1 µM) for the second.

`COc1ccc(/C=N\NC(=O)c2cc(OC)ccc2Br)c(OC)c1` and `COc1ccc(Br)c(C(=O)N/N=C\c2cccc(Cl)c2)c1` are the same in MIC: 12.5 µg/mL (≈ 31.8 µM) for the first, 12.5 µg/mL (≈ 34 µM) for the second.

Compared with `COc1ccc(Br)c(C(=O)NN2C(=O)CSC2c2ccccc2Cl)c1` (centres undefined), `COc1ccc(Br)c(C(=O)NN2C(=O)CSC2c2ccc(O)cc2)c1` (centres undefined) is 2-fold higher in MIC: 6.25 µg/mL (≈ 14.1 µM) for the first, 12.5 µg/mL (≈ 29.5 µM) for the second.

These compounds were tested on Pseudomonas aeruginosa (assay: Antibacterial activity against Pseudomonas aeruginosa ATCC 27853 assessed as growth inhibition by serial plate dilution method).
Format: functional

Compared with `COc1ccc(Br)c(C(=O)N/N=C\c2ccc(O)cc2)c1`, `COc1ccc(/C=N\NC(=O)c2cc(OC)ccc2Br)cc1` is 2-fold lower in MIC: 6.25 µg/mL (≈ 17.9 µM) for the first, 3.12 µg/mL (≈ 8.6 µM) for the second.

`COc1ccc(Br)c(C(=O)NN2C(=O)CSC2C2=C(Cl)c3ccccc3C(c3ccc(Cl)c(Cl)c3)C2)c1` (centres undefined) and `COc1ccc(Br)c(C(=O)N/N=C/C2=C(Cl)c3ccccc3C(c3ccc(Cl)c(Cl)c3)C2)c1` (centres undefined) are the same in MIC: 6.25 µg/mL (≈ 9.78 µM) for the first, 6.25 µg/mL (≈ 11.1 µM) for the second.

`COc1ccc(/C=N\NC(=O)c2cc(OC)ccc2Br)c(OC)c1` and `COc1ccc(Br)c(C(=O)N/N=C\c2cccc(Cl)c2)c1` are the same in MIC: 6.25 µg/mL (≈ 15.9 µM) for the first, 6.25 µg/mL (≈ 17 µM) for the second.

First: COc1ccc(Br)c(C(=O)NN2C(=O)CSC2c2ccccc2Cl)c1 (centres undefined)
Second: COc1ccc(Br)c(C(=O)NN2C(=O)CSC2c2ccc(O)cc2)c1 (centres undefined)
The MIC of the first is 2-fold lower: 3.12 µg/mL (≈ 7.07 µM) for the first, 6.25 µg/mL (≈ 14.8 µM) for the second.

The compounds below were run on Staphylococcus aureus (assay: Antibacterial activity against Staphylococcus aureus ATCC 25923 assessed as growth inhibition by serial plate dilution method).
Format: functional

`COc1ccc(Br)c(C(=O)N/N=C\c2ccc(O)cc2)c1` and `COc1ccc(/C=N\NC(=O)c2cc(OC)ccc2Br)cc1` are the same in MIC: 12.5 µg/mL (≈ 35.8 µM) for the first, 12.5 µg/mL (≈ 34.4 µM) for the second.

First: COc1ccc(Br)c(C(=O)NN2C(=O)CSC2C2=C(Cl)c3ccccc3C(c3ccc(Cl)c(Cl)c3)C2)c1 (centres undefined)
Second: COc1ccc(Br)c(C(=O)N/N=C/C2=C(Cl)c3ccccc3C(c3ccc(Cl)c(Cl)c3)C2)c1 (centres undefined)
The MIC of the first is 2-fold lower: 6.25 µg/mL (≈ 9.78 µM) for the first, 12.5 µg/mL (≈ 22.1 µM) for the second.

First: COc1ccc(/C=N\NC(=O)c2cc(OC)ccc2Br)c(OC)c1
Second: COc1ccc(Br)c(C(=O)N/N=C\c2cccc(Cl)c2)c1
The MIC of the first is 2-fold lower: 12.5 µg/mL (≈ 31.8 µM) for the first, 25 µg/mL (≈ 68 µM) for the second.

First: COc1ccc(Br)c(C(=O)NN2C(=O)CSC2c2ccccc2Cl)c1 (centres undefined)
Second: COc1ccc(Br)c(C(=O)NN2C(=O)CSC2c2ccc(O)cc2)c1 (centres undefined)
The MIC of the first is 2-fold lower: 6.25 µg/mL (≈ 14.1 µM) for the first, 12.5 µg/mL (≈ 29.5 µM) for the second.

The compounds below were run on Escherichia coli (assay: Antibacterial activity against Escherichia coli ATCC 25922 assessed as growth inhibition by serial plate dilution method).
Format: functional

`COc1ccc(Br)c(C(=O)N/N=C\c2ccc(O)cc2)c1` and `COc1ccc(/C=N\NC(=O)c2cc(OC)ccc2Br)cc1` are the same in MIC: 12.5 µg/mL (≈ 35.8 µM) for the first, 12.5 µg/mL (≈ 34.4 µM) for the second.

`COc1ccc(Br)c(C(=O)NN2C(=O)CSC2C2=C(Cl)c3ccccc3C(c3ccc(Cl)c(Cl)c3)C2)c1` (centres undefined) and `COc1ccc(Br)c(C(=O)N/N=C/C2=C(Cl)c3ccccc3C(c3ccc(Cl)c(Cl)c3)C2)c1` (centres undefined) are the same in MIC: 12.5 µg/mL (≈ 19.6 µM) for the first, 12.5 µg/mL (≈ 22.1 µM) for the second.

Going from `COc1ccc(/C=N\NC(=O)c2cc(OC)ccc2Br)c(OC)c1` to `COc1ccc(Br)c(C(=O)N/N=C\c2cccc(Cl)c2)c1`, the MIC rises from 6.25 µg/mL (≈ 15.9 µM) to 12.5 µg/mL (≈ 34 µM) (2-fold).

Going from `COc1ccc(Br)c(C(=O)NN2C(=O)CSC2c2ccccc2Cl)c1` (centres undefined) to `COc1ccc(Br)c(C(=O)NN2C(=O)CSC2c2ccc(O)cc2)c1` (centres undefined), the MIC falls from 12.5 µg/mL (≈ 28.3 µM) to 6.25 µg/mL (≈ 14.8 µM) (2-fold).

The compounds below were run on Mus musculus (assay: Analgesic activity in Mus musculus […] albino (mouse) assessed as time taken to tail withdrawl at 100 mg/kg, po administered through intragastric tube after 180 min by tail flick test (reference value: 1.363 +/- 0.1297 secs)).
Format: functional

Going from `COc1ccc(Br)c(C(=O)NN2C(=O)CSC2C2=C(Cl)c3ccccc3C(c3ccc(Cl)c(Cl)c3)C2)c1` (centres undefined) to `COc1ccc(Br)c(C(=O)NN2C(=O)CSC2c2ccccc2Cl)c1` (centres undefined), the Time rises from 2.338 s to 2.5 s.

`COc1ccc(Br)c(C(=O)NN2C(=O)CSC2c2ccc(O)cc2)c1` (centres undefined) was tested, and the Time was 2.532 s.

The compounds below were run on Mus musculus (assay: Analgesic activity in Mus musculus […] albino (mouse) assessed as time taken to tail withdrawl at 100 mg/kg, po administered through intragastric tube after 120 min by tail flick test (reference value: 1.363 +/- 0.1297 secs)).
Format: functional

Going from `COc1ccc(Br)c(C(=O)NN2C(=O)CSC2C2=C(Cl)c3ccccc3C(c3ccc(Cl)c(Cl)c3)C2)c1` (centres undefined) to `COc1ccc(Br)c(C(=O)NN2C(=O)CSC2c2ccccc2Cl)c1` (centres undefined), the Time falls from 3.388 s to 2.125 s.

Compound `COc1ccc(Br)c(C(=O)NN2C(=O)CSC2c2ccc(O)cc2)c1` (centres undefined) has a Time of 2.775 s.

Each compound was assayed on Mus musculus (assay: Analgesic activity in Mus musculus […] albino (mouse) assessed as time taken to tail withdrawl at 100 mg/kg, po administered through intragastric tube after 60 min by tail flick test (reference value: 1.363 +/- 0.1297 secs)).
Format: functional

First: COc1ccc(Br)c(C(=O)NN2C(=O)CSC2C2=C(Cl)c3ccccc3C(c3ccc(Cl)c(Cl)c3)C2)c1 (centres undefined)
Second: COc1ccc(Br)c(C(=O)NN2C(=O)CSC2c2ccccc2Cl)c1 (centres undefined)
The Time of the first is higher: 3.463 s for the first, 1.963 s for the second.

`COc1ccc(Br)c(C(=O)NN2C(=O)CSC2c2ccc(O)cc2)c1` (centres undefined) was tested, and the Time was 2.675 s.

The compounds below were run on Rattus norvegicus (assay: Anti-inflammatory activity in Rattus norvegicus (rat) assessed as decrease in carrageenan-induced paw edema at 100 mg/kg, po administered 30 min prior to carrageenan challenge measured after 180 min (reference value: 2.275 +/- 0.1181 mm)).
Format: functional

First: COc1ccc(Br)c(C(=O)NN2C(=O)CSC2C2=C(Cl)c3ccccc3C(c3ccc(Cl)c(Cl)c3)C2)c1 (centres undefined)
Second: COc1ccc(Br)c(C(=O)NN2C(=O)CSC2c2ccccc2Cl)c1 (centres undefined)
The Activity of the first is lower: 2.025 mm for the first, 2.075 mm for the second.

`COc1ccc(Br)c(C(=O)NN2C(=O)CSC2c2ccc(O)cc2)c1` (centres undefined) gave an Activity of 2.048 mm.

Each compound was assayed on Rattus norvegicus (assay: Anti-inflammatory activity in Rattus norvegicus (rat) assessed as decrease in carrageenan-induced paw edema at 100 mg/kg, po administered 30 min prior to carrageenan challenge measured after 120 min (reference value: 2.375 +/- 0.1436 mm)).
Format: functional

Compared with `COc1ccc(Br)c(C(=O)NN2C(=O)CSC2C2=C(Cl)c3ccccc3C(c3ccc(Cl)c(Cl)c3)C2)c1` (centres undefined), `COc1ccc(Br)c(C(=O)NN2C(=O)CSC2c2ccccc2Cl)c1` (centres undefined) is lower in Activity: 2.175 mm for the first, 1.975 mm for the second.

`COc1ccc(Br)c(C(=O)NN2C(=O)CSC2c2ccc(O)cc2)c1` (centres undefined) was tested, and the Activity was 1.899 mm.

Each compound was assayed on Rattus norvegicus (assay: Anti-inflammatory activity in Rattus norvegicus (rat) assessed as decrease in carrageenan-induced paw edema at 100 mg/kg, po administered 30 min prior to carrageenan challenge measured after 60 min (reference value: 2.175 +/- 0.1797 mm)).
Format: functional

Compared with `COc1ccc(Br)c(C(=O)NN2C(=O)CSC2C2=C(Cl)c3ccccc3C(c3ccc(Cl)c(Cl)c3)C2)c1` (centres undefined), `COc1ccc(Br)c(C(=O)NN2C(=O)CSC2c2ccccc2Cl)c1` (centres undefined) is lower in Activity: 2.025 mm for the first, 1.85 mm for the second.

With `COc1ccc(Br)c(C(=O)NN2C(=O)CSC2c2ccc(O)cc2)c1` (centres undefined) the Activity was 1.89 mm.

The compounds below were run on Radical scavenging activity (assay: Antioxidant activity assessed as inhibition of DPPH radical generation at 800 ug/mL after 20 min by spectrophotometric analysis relative to control).
Format: functional

Going from `COc1ccc(Br)c(C(=O)NN2C(=O)CSC2c2ccccc2Cl)c1` (centres undefined) to `COc1ccc(Br)c(C(=O)NN2C(=O)CSC2c2ccc(O)cc2)c1` (centres undefined), the inhibition falls from 72.9% to 58.3%.

What follows are compounds tested on Radical scavenging activity (assay: Antioxidant activity assessed as inhibition of DPPH radical generation at 400 ug/mL after 20 min by spectrophotometric analysis relative to control).
Format: functional

First: COc1ccc(Br)c(C(=O)NN2C(=O)CSC2c2ccccc2Cl)c1 (centres undefined)
Second: COc1ccc(Br)c(C(=O)NN2C(=O)CSC2c2ccc(O)cc2)c1 (centres undefined)
The inhibition of the first is higher: 65.9% for the first, 58% for the second.

The compounds below were run on Radical scavenging activity (assay: Antioxidant activity assessed as inhibition of DPPH radical generation at 200 ug/mL after 20 min by spectrophotometric analysis relative to control).
Format: functional

First: COc1ccc(Br)c(C(=O)NN2C(=O)CSC2c2ccccc2Cl)c1 (centres undefined)
Second: COc1ccc(Br)c(C(=O)NN2C(=O)CSC2c2ccc(O)cc2)c1 (centres undefined)
The inhibition of the first is higher: 59.3% for the first, 57.8% for the second.
